“Also recorded” adds a separate entry of the source.
Assays:
patients = experiment: Phase I dose-escalation study: safety and tolerability in cancer patients on taxane-based chemotherapy; type: in vivo
Description: The dosage will be escalated if the clinical toxicity is declared acceptable (see below). five dose levels will be considered for escalation (10, 20, 40, 60 and 80 μg/mL). Determination of dose limiting toxicity (DLT, defined in section 8.2) will be made during the first 28 days of topical treatment. No intrapatient dose escalation will be performed. […] The dose escalation scheme (Table 8.1) will occur as follows:
If the patient presents with symptoms of hypercalcemia, serum calcium should be determined and treatment should be stopped immediately. Hypercalcemia will be defined using CTCAE version 4.0 grade 3 (or higher), which is defined as serum calcium >12.5-13.5 mg/dL; >3.1-3.4 mmol/L or ionized calcium >1.6-1.8 mmol/L and hospitalization is indicated. For patients with asymptomatic hypercalcemia determined by elevated serum calcium, their ionized calcium levels will first be checked. If the ionized calcium level is in fact elevated, the study drug will be stopped. If the ionized calcium level is normal, the patient will remain on the study and ionized calcium will be followed rather than serum calcium.
Each patient underwent PK analysis, adverse event monitoring, patient self-assessment diaries (1-10 scale), and blinded photographic assessments. […] Toxicity was determined on a weekly basis during Cycle 1 (i.e., the first 28 days of topical agent application) and subsequently every four weeks. Patients were managed with adequate safety (adverse event) monitoring and pharmacokinetic (PK) analysis in order to determine levels of exposure.

HEKa cells = experiment: Antibody microarray (Panorama XP725) of calcitriol-treated HEKa cells; type: cell-based, human; details: 24-hour
Description: Briefly, the treated HEKa cells were first harvested and then extracted to obtain a soluble protein supernatant. Two portions of the extracted protein sample (˜1 mg total) from each sample (at 1 mg/mL) were each labeled with fluorescent dye (Cy3 and Cy5, respectively). The excess dye was removed from the protein sample, and the resulting labeled protein samples were used for microarray incubation. To determine the expression level of a particular target protein at a later time point (e.g., at hour 6 or 24) relative to that at an earlier time point (e.g., at hour 3), the samples were labeled by different labels (e.g., 3-hour extract labeled with Cy3, 6-hour or 24-hour extract labeled with Cy5). Then the two labeled samples containing equal amounts of total protein were mixed (e.g., Cy3-labeled 3-hour sample is mixed with Cy5-labeled 6-hour or 24-hour samples, respectively). After incubation with the microarray chip (according to manufactures recommended protocols), the chips were washed and dried. The microarrays were then scanned with a fluorescent laser scanner to measure the relative fluorescence intensity of the Cy3 and Cy5 dyes. If the amount of a particular type of target protein increased (or decreased) over time, more (or less) of the dye associated with the later time point (e.g., Cy5) will be retained by the microarray. […]

C3H/HeJ mouse = experiment: C3H/HeJ model of alopecia areata; type: in vivo; details: 0.2 μg for 15 days, observed 30 days
Excerpt: Neonatal Rat model and PCA model. Sprague Dawley rats were purchased from Charles River Laboratories (Wilmington, MA). C3H/HeJ mouse were purchased from Jackson Laboratories (Bar Harbour, ME). Rodents were housed and fed according to NIH guidelines. […] Uskokovic (Hoffman-La Roche, Nutley, NJ). For experiments involving C3H/HeJ mice, 1,25(OH)2D3 was purchased from Sigma (St. Louis, M0). C3H/HeJ Model of Abpecia Areata. Retired breeders (8 months of age) were observed daily for the development of AA lesions.

[1] = Quantification of calcitriol in ex vivo porcine skin layers after 7 days of dermal administration; details: for Stratum Corneum, Calcitriol Recovered: 10 μg/mL, mean ± SD
Description: The placebo and test articles were administered dermally twice daily approximately 6 hours apart for 7 days during the study. The dose concentrations were 0, 1, 3, 10, 30, and 100 μg/mL, and administered at an application rate of 4 mg/cm^2 (equivalent to 144 mg or 166 μL of test solution). Prior to initiation of administration (Days −4 and −5 for Groups 1 and 2, respectively), the hair was clipped from the application sites using an electric clipper. Care was taken to avoid abrading the skin. The dorsal surface of each animal was divided into five application sites for Group 1 and two application sites for Group 2. Each application site was approximately 6×6 cm with at least a 2 cm space between each site. The placebo and test article formulations were uniformly applied over the specified application site with a glass stirring rod or appropriate instrument. Prior to dosing, the residual test article from the previous dose was gently removed using a soft paper towel (i.e., WyPall®) moistened with tap water.
At the end of the study, the skin was reflected from a ventral midline incision, and sections of treated and untreated skin were collected and preserved. Sections of each 6×6 cm dosing site were first thoroughly surface washed with a mild soap and water mixture (e.g., 1% Ivory Soap in water or equivalent) to remove any residual topical test formulation. The washed skin sections were then wiped clean with ethanol, and were excised down to and including the adipose layer. If the area to be excised is larger than the dosed area, the dosed area was demarked with indelible ink to delineate the skin area that was dosed. The 1.5 cm×1.5 cm sections were laid flat, wrapped in two layers of Saran wrap (or equivalent) and flash frozen in liquid nitrogen. The samples were stored at −70° C. and shipped on dry ice via overnight courier for analysis. Each skin section was identified as appropriate (e.g., animal identification, study number, date, etc.).
Upon arrival at the analysis site, skin sections were placed in water tight plastic bag and thawed by emersion in warm water (˜30° C.-35° C.). Each skin section was gently rinsed with distilled de-ionized water to remove any residual test article and blood. All subcutaneous tissue (e.g., adipose) was removed by manual scalpel ablation. Within the central region of the dosed area, four individual 1 cm^2 circles (replicates) were demarked, and each site was subsequently identified and the actual area recorded. […] The skin sections were weighed and the weight recorded. […]
Following tape stripping, the skin was separated into epidermis (sans stratum corneum, simply referred to herein after as “epidermis”) and dermis by heat exposure to 60° C. for approximately 1-1.5 minutes. […] The epidermis and dermis were weighed and the weight recorded. […]

[2] = Preliminary animal toxicology study; type: in vivo; details: dose of about 100 μg
[3] = test system: Long Evans and Sprague Dawley rats; experiment: Chemotherapy-induced alopecia (CIA) in the neonatal rat, topical calcitriol formulation; type: in vivo
Chemical stability = type: physicochemical
[4] = test system: PaCa2 (pancreatic carcinoma); experiment: Cell growth / viability assay, PaCa2; type: cell-based
Description: (§1) The drug treatment period was usually three days. At the end of the three days, the background OD of the 96-well plate was read at 280 nm, before 20 μL of the “Substrate Cell Titer 96 Aqueous One Solution Reagent” (Promega) was added to each well. The plate was returned to the 37° C. incubator, and its OD at 490 nm was read each hour until an OD of approximately 1.5 was reached. The net OD increase was calculated by subtracting the pre-substrate OD reading.
(§2) The impact of the drug on the cells was calculated by comparing the OD at different concentrations in relation to the OD of the control wells (without the drug).
(§3) Then these pretreated cells were utilized to set up the cell based assay.

chloroleukemia C51 cells = details: 0.2 μg pretreatment prior to cyclophosphamide; cited from earlier work
PC-3 = experiment: Cell viability assay, PC-3; type: cell-based; details: PC-3, 0.1 μg/mL calcitriol for two passages
Description: as §1, §2, §3

C=C1/C(=C\C=C2/CCC[C@]3(C)[C@@H]([C@H](C)CCCC(C)(C)O)CC[C@@H]23)C[C@@H](O)C[C@@H]1O [Calcitriol, (5Z,7E)-9,10-secocholesta-5,7.10(19Hriene-1 a,33.25-triol]
AEs Related to Study Drug (patients; 5 μg/mL × 1 mL BID): Mild Scalp pain (1) | serious adverse events reported (number) (patients; all dose levels): 25 | dose limiting toxicities (DLTs) (patients; human, in vivo): No dose limiting toxicities | serious adverse events unrelated/unlikely to the study drug (patients; human, in vivo, 3 months): 84% | serious adverse events unrelated/unlikely to the study drug (number) (patients; human, in vivo, 3 months): 21 | serious adverse events possibly related to the study drug (number) (patients; one patient, 40 μg/mL, passing a renal calculi): 4 | maximum tolerated dose (MTD) (patients; up to 80 μg/mL): not detected | proteins significantly upregulated (number) (HEKa cells): about fifty proteins | regrowth of hair in alopecic lesions (C3H/HeJ mouse): No regrowth of hair | skin layers in which calcitriol was measurable ([1]; 1-100 μg/mL, exception: dermis at 100 μg/mL in a single male minipig): measurable in most stratum corneum and epidermal samples, but not in the dermal samples | applied dose correlation to epidermal tissue level ([1]; 3 to 100 μg/mL applications): near linear increase | Stratum Corneum, Calcitriol Recovered ([1]; Female Minipigs): 1.65 ± 1.80 (3) ng/cm^2 | Stratum Corneum, Calcitriol Recovered ([1]; Male Minipigs): 59.6 ± 14.1 (3) ng/cm^2 | dermal irritation [2]: no dermal irritation | epidermal / dermal penetration [2]: excellent epidermal penetration without substantial dermal penetration | protection from cytarabine-induced alopecia [3]: protective effect | Chemical Stability (Chemical stability): Stable at room temperature | effect of calcitriol on cell growth ([4]; PaCa2, wide range of calcitriol concentrations): no significant growth promoting or growth inhibiting effects; also recorded: not responsive | effect of calcitriol on the cytotoxic effect of Doxorubicin ([4]; PaCa-2): did not appear to appreciably alter | 5-FU ED50 curve with vs without calcitriol ([4]; PaCa-2, 0.1 μg/mL calcitriol): not significantly different | response to doxorubicin, cisplatin and erlotinib after calcitriol exposure ([4]; PaCa-2, 0.1 μg/mL calcitriol for two passages): did not alter | survival rate vs ethanol vehicle (chloroleukemia C51 cells): No statistically significant difference in the survival rate | response to doxorubicin, cisplatin and erlotinib after calcitriol exposure (PC-3): did not alter

Reference: patent publication US20230302022A1, “PREVENTING OR MITIGATING CHEMOTHERAPY INDUCED ALOPECIA USING VITAMIN D” (priority 2016, published 2023)
